How the values were obtained:
[1] = test system: C57BL/6 mice; experiment: IMQ (imiquimod) induced psoriasis; type: in vivo, mouse; details: oral dosing; FIG. 36
Description: A model of psoriasis includes the effects of degrader on epidermal hyperplasia development induced by daily topical application of 5% imiquimod in C57BL/6 mice. On each of Days 0 to 6, mice had 5% imiquimod cream administered topically on left ear and shaved back skin. Control mice (no imiquimod group) received control cream without imiquimod. […] The last dosing was on Day 6 for all mice. All dosing was at the same time (+/−1 hour) each day. For the BID groups there was no less than 9 and no more than 15 hours between doses. Readouts were body weight, PASI score, and skin thickness. Body weight was measured 3 times/week, starting on Day −3. Once on each of Days 0, 3, 5, 6, and 7, back and ear thickness was measured with calipers. Each measurement was performed blind, by a person unaware of the group or previous measurement. On Day 7, approximately 24 hours after the last imiquimod application, all mice were euthanized and blood collected via cardiac bleed into EDTA tubes. Plasma was isolated, and frozen. Tissues of interest were removed, weighed, recorded and frozen.

[2] = test system: IL-6; experiment: IL-6 secretion in hPBMC using R848 stimulation; type: cell-based, human; details: Homo sapiens, 20 h; read-out: IL-6 Secretion in hPBMC, R848 as stim, t = 20 h: IC50
[3] = test system: OCI-LY10; experiment: CTG Cell Viability Assay - OCI-LY10; type: cell-based, human; details: Homo sapiens, OCI-LY10, 4 days, read-out: CTG Cell Viability Assay - OCI-LY10: Average external-IC50
In short: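 OCI-LY10 cells exposed to 9-dose, 1:3 dilutions from 10 μM top (0.2% DMSO) for 4 days at 37° C, 5% CO2. Viability by CellTiter-Glo luminescence; IC50 from three-parameter logistic fit.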

[4] = test system: OCI-LY10 tumor xenograft; experiment: OCI-LY10 tumor xenograft, tumor volume; type: in vivo; details: single agent, PO, QD, 24, 72, and 240 mg/kg (FIG. 21)
[5] = test system: OCI-LY19; experiment: OCI-LY19 viability, CTG; type: cell-based; details: Homo sapiens, OCI-LY19; MYD88 WT; read-out: OCI-LY19 CTG IC50
[6] = molecular target: T1, AIOLOS (Homo sapiens (Human), UniProt Q96SW2+Q9UKT9); experiment: Aiolos degradation in OCI-LY10 tumor xenograft; type: in vivo; details: sample time 24 h
T1 sequence (Q9UKT9 whole entry): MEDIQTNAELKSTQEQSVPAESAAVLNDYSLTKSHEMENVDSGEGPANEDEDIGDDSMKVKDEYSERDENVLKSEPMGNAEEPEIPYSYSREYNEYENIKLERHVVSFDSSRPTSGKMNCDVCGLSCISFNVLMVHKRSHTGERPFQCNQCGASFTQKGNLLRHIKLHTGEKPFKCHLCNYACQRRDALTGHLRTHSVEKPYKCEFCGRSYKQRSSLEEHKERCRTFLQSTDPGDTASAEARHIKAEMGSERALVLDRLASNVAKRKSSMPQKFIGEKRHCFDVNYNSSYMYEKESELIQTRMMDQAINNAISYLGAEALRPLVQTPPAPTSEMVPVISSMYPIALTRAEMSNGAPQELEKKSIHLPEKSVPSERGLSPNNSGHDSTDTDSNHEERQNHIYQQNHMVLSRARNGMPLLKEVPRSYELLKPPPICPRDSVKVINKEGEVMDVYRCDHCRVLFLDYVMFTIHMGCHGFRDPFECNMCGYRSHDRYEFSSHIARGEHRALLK
T1 sequence (Q96SW2 whole entry): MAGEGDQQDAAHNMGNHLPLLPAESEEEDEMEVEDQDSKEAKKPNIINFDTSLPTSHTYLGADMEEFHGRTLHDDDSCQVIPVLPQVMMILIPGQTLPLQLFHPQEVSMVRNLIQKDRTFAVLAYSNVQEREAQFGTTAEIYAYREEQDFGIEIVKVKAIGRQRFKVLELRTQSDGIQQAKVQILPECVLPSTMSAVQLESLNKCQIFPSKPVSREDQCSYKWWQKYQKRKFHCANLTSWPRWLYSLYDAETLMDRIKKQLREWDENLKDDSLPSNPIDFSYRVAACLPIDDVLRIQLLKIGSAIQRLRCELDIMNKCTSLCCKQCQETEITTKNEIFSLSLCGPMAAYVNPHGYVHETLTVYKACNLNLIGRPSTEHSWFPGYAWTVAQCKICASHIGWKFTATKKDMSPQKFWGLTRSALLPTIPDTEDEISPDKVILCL
T1 sequence (Q16531 whole entry partner): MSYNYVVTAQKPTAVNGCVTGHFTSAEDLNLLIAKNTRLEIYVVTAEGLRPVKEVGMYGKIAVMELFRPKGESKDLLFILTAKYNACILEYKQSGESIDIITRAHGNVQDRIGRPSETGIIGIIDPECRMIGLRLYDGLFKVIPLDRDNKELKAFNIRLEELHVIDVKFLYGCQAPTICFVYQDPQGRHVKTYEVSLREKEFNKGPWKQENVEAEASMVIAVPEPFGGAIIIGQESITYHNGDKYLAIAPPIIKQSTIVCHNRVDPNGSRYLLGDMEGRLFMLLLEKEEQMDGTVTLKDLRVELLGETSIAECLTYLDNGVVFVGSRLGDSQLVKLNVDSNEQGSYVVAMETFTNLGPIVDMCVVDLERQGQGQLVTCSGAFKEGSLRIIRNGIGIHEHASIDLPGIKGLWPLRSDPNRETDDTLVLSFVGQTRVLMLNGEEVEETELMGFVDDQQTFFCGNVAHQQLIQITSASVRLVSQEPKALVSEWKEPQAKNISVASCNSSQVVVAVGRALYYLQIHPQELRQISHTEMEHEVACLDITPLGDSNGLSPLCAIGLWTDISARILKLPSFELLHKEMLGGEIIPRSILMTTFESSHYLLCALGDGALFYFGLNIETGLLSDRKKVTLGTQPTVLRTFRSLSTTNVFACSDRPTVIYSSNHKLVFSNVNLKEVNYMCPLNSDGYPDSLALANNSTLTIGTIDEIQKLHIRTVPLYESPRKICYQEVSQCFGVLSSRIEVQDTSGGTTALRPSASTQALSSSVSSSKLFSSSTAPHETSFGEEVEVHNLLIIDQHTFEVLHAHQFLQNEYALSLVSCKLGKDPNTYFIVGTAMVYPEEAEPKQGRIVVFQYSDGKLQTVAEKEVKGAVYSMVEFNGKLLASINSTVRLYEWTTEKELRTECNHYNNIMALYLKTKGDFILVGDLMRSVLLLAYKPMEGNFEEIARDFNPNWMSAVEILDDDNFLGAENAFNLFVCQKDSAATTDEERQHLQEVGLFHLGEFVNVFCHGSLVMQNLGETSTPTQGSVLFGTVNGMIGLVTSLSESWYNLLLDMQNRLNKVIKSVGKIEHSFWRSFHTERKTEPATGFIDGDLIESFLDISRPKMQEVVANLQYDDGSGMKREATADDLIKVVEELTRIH

[7] = molecular target: T2, IRAK4 (Homo sapiens (Human), UniProt Q9NWZ3); experiment: IRAK4 degradation in OCI-LY10 (DC50); type: cell-based; details: read-out: IRAK4 OCI-LY10 DC50
T2 sequence (Q9NWZ3 whole entry): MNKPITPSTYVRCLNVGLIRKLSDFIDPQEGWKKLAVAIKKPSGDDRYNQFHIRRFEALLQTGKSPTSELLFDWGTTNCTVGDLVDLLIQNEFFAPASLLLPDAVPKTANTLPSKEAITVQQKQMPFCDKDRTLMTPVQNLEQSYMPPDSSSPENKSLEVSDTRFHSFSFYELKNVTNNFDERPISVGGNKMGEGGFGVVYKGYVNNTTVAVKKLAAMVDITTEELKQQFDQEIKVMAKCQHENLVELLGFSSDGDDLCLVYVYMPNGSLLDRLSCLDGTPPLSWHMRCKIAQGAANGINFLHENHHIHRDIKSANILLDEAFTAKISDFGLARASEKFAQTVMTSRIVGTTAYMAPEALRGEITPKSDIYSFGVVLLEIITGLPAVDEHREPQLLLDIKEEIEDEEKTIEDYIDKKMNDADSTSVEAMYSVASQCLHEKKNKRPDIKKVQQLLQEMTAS

[8] = test system: OCI-LY10; experiment: OCI-LY10 viability, CTG; type: cell-based; details: Homo sapiens, OCI-Ly10; MYD88 MUT; read-out: OCI-LY10 CTG IC50
[9] = molecular target: T1, AIOLOS; experiment: AIOLOS degradation in OCI-LY10 (DC50); type: cell-based
[10] = molecular target: T2, IRAK4; experiment: IRAK4 degradation in OCI-LY10 tumor xenograft; type: in vivo; details: OCI-LY10 tumor xenograft, sample time 24 h
[11] = test system: U2932; experiment: U2932 viability, CTG; type: cell-based; details: Homo sapiens, U2932; MYD88 WT; read-out: U2932 CTG IC50
[12] = molecular target: T3, IKAROS (Homo sapiens (Human), UniProt Q13422+Q96SW2); experiment: Ikaros degradation in OCI-LY10 tumor xenograft; type: in vivo; details: sample time 24 h
T3 sequence (Q13422 whole entry): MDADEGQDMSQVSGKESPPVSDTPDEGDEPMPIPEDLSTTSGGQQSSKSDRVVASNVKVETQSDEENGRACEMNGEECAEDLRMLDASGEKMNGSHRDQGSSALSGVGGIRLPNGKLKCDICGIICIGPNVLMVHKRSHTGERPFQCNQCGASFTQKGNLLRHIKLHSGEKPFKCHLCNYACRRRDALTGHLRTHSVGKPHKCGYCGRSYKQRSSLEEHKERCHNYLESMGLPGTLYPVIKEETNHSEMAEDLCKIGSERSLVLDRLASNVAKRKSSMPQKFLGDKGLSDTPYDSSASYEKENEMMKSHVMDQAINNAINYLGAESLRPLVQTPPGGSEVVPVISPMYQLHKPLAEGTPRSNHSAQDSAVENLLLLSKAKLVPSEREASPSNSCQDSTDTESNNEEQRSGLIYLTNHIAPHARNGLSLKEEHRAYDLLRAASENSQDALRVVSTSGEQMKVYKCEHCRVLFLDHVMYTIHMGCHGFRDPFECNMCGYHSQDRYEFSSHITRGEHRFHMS
T3 sequence (Q96SW2 whole entry): as the sequence (Q96SW2 whole entry) above
T3 sequence (Q16531 whole entry partner): as the sequence (Q16531 whole entry partner) above

[13] = molecular target: T3, IKAROS; experiment: IKAROS degradation in OCI-LY10 (DC50); type: cell-based
[14] = test system: IFIT1; experiment: Interferon response IFIT1 in OCI-LY10 tumor xenograft; type: in vivo; details: sample time 24 h
[15] = test system: IFIT3; experiment: Interferon response IFIT3 in OCI-LY10 tumor xenograft; type: in vivo; details: sample time 24 h
[16] = test system: OCI-LY3; experiment: OCI-LY3 viability, CTG; type: cell-based; details: Homo sapiens, MYD88 MUT
[17] = molecular target: T2, IRAK4; experiment: IRAK4 WB degradation (DC50); type: cell-based
[18] = test system: SU-DHL6; experiment: SU-DHL6 viability, CTG; type: cell-based; details: Homo sapiens, SU-DHL-6; MYD88 WT; read-out: SU-DHL6 CTG IC50
[19] = molecular target: T2, IRAK4; experiment: IRAK4 MSD degradation in OCI-LY10; type: cell-based; details: OCI-LY10, 4 hrs, MSD; read-out: IRAK4 MSD degradation in OCI-LY10 at 4 hrs: Average external-Abs DC50
In short: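 OCI-LY10 cells treated with 8-point 1:3 dilutions (top 1 to 10 μM final) for 4 to 24 h at 37° C. Lysate IRAK4 measured by MSD sandwich immunoassay (2H9 capture, Y279 detection, SULFO-TAG anti-rabbit). DC50 from three-parameter logistic fit.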

[20] = test system: SU-DHL2; experiment: SU-DHL2 viability, CTG; type: cell-based; details: Homo sapiens, SU-DHL-2; MYD88 MUT; read-out: SU-DHL2 CTG IC50

`Cn1c(=O)n(C2CCC(=O)NC2=O)c2cccc(C#CCOC3CCN(C[C@H]4CC[C@H](n5cc(NC(=O)c6cnn7ccc(N8C[C@H]9C[C@@H]8CO9)nc67)c(C(F)F)n5)CC4)CC3)c21` (stereo partly drawn) [I-417, N-[3-(difluoromethyl)-1-[4-[[4-[3-[1-(2,6-dioxo-3-piperidyl)-3-methyl-2-oxo-benzimidazol-4-yl]prop-2-ynoxy]-1-piperidyl]methyl]cyclohexyl]pyrazol-4-yl]-5-[(1R,4R)-2-oxa-5-azabicyclo[2.2.1]heptan-5-yl]pyrazolo[1,5-a]pyrimidine-3-carboxamide] was tested, and the “skin thickening in mice treated with topical imiquimod” value [1] was “significantly reduced skin thickening”, the IC50 [2] was < 1 nM and the IC50 ([3]; 96 h) was > 1000 nM.

For `O=C1CCC(N2C(=O)c3cccc(NCCCOC4CCN(C[C@H]5CC[C@H](n6cc(NC(=O)c7cnn8ccc(N9CCOCC9)nc78)c(C(F)F)n6)CC5)CC4)c3C2=O)C(=O)N1` (some centres unmarked) [I-208], the “Regression of OCI-LY10 tumor xenograft” value [4] was “with regression”, the “Regression of OCI-LY10 tumor xenograft” value ([4]; listed as 1-208) was “drives regression” and the IC50 [5] was 1700 nM. For the same compound, the “Aiolos ↓ (% Control)” value ([6]; 24 mg/kg PO QD) was 30.9 % Control, the “Aiolos ↓ (% Control)” value ([6]; 72 mg/kg PO QD) was 62.4 % Control and the “Aiolos ↓ (% Control)” value ([6]; 240 mg/kg PO QD) was 68.6 % Control. The DC50 [7] was 20 nM, the IC50 [8] was 36 nM and the DC50 [9] was < 3 nM. The “IRAK4 ↓ (% Control)” value ([10]; 24 mg/kg PO QD) was 57.8 % Control, the “IRAK4 ↓ (% Control)” value ([10]; 72 mg/kg PO QD) was 78.7 % Control and the “IRAK4 ↓ (% Control)” value ([10]; 240 mg/kg PO QD) was 86.5 % Control. For the same compound, the IC50 [11] was 1800 nM, the “Ikaros ↓ (% Control)” value ([12]; 24 mg/kg PO QD) was 46.3 % Control and the “Ikaros ↓ (% Control)” value ([12]; 72 mg/kg PO QD) was 71.0 % Control. The “Ikaros ↓ (% Control)” value ([12]; 240 mg/kg PO QD) was 81.2 % Control, the DC50 [13] was 3 nM and the “Interferon Response IFIT1 Increase (Fold)” value ([14]; 24 mg/kg PO QD) was >24.4 Fold. The “Interferon Response IFIT1 Increase (Fold)” value ([14]; 72 mg/kg PO QD) was >41.5 Fold, the “Interferon Response IFIT1 Increase (Fold)” value ([14]; 240 mg/kg PO QD) was >38.7 Fold and the “Interferon Response IFIT3 Increase (Fold)” value ([15]; 24 mg/kg PO QD) was >43.1 Fold. The “Interferon Response IFIT3 Increase (Fold)” value ([15]; 72 mg/kg PO QD) was >64.0 Fold, the “Interferon Response IFIT3 Increase (Fold)” value ([15]; 240 mg/kg PO QD) was >59.7 Fold and the IC50 [16] was 3000 nM. The DC50 [17] was 130 nM, the IC50 [18] was 833 nM and the DC50 [19] was 10 to 100 nM. The IC50 [20] was 366 nM and the IC50 ([3]; OCI-Ly10, 96 h) was < 50 nM.

Reference: patent US11352350B2, “IRAK degraders and uses thereof” (Kymera Therapeutics, Inc., priority 2018, dated 2022)
